Reference: PubChem BioAssay (NCI)
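Interpolation was linear, between the two tested concentrations surrounding the appropriate level; five concentrations were tested over 48 hours in 96-well plates. TGI is the concentration that stops growth completely.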

Assays:
Test in all cases: growth of human tumour cells (NCI), 48 h
MDA-MB-435 = tested on: MDA-MB-435
SK-MEL-2 melanoma = tested on: SK-MEL-2 melanoma
786-0 renal = tested on: 786-0 renal
NCI-H226 lung = tested on: NCI-H226 lung
BT-549 breast = tested on: BT-549 breast
RXF 393 renal = tested on: RXF 393 renal
OVCAR-4 ovarian = tested on: OVCAR-4 ovarian
KM12 colon = tested on: KM12 colon
HCT-116 colon = tested on: HCT-116 colon
MDA-N = tested on: MDA-N
M14 melanoma = tested on: M14 melanoma
MOLT-4 leukemia = tested on: MOLT-4 leukemia
NCI-H522 lung = tested on: NCI-H522 lung
HS 578T breast = tested on: HS 578T breast
SK-MEL-28 melanoma = tested on: SK-MEL-28 melanoma
UACC-257 melanoma = tested on: UACC-257 melanoma
MALME-3M melanoma = tested on: MALME-3M melanoma
SW-620 colon = tested on: SW-620 colon
SNB-19 CNS = tested on: SNB-19 CNS
HCT-15 colon = tested on: HCT-15 colon
SF-268 CNS = tested on: SF-268 CNS
TK-10 renal = tested on: TK-10 renal
COLO 205 colon = tested on: COLO 205 colon
K-562 leukemia = tested on: K-562 leukemia
OVCAR-8 ovarian = tested on: OVCAR-8 ovarian
MCF7 breast = tested on: MCF7 breast
A549 NSCLC = tested on: A549 NSCLC
MDA-MB-231 breast = tested on: MDA-MB-231 breast
UACC-62 melanoma = tested on: UACC-62 melanoma
HCC-2998 colon = tested on: HCC-2998 colon
PC-3 prostate = tested on: PC-3 prostate
EKVX NSCLC = tested on: EKVX NSCLC
SR leukemia = tested on: SR leukemia
SF-539 CNS = tested on: SF-539 CNS
NCI-H460 lung = tested on: NCI-H460 lung
UO-31 renal = tested on: UO-31 renal
SNB-75 CNS = tested on: SNB-75 CNS
HOP-92 NSCLC = tested on: HOP-92 NSCLC
NCI/ADR-RES ovarian = tested on: NCI/ADR-RES ovarian
OVCAR-5 ovarian = tested on: OVCAR-5 ovarian
SK-MEL-5 melanoma = tested on: SK-MEL-5 melanoma
T-47D breast = tested on: T-47D breast
LOX IMVI melanoma = tested on: LOX IMVI melanoma
NCI-H23 lung = tested on: NCI-H23 lung
CAKI-1 renal = tested on: CAKI-1 renal
SN12C renal = tested on: SN12C renal
U251 CNS = tested on: U251 CNS
HT29 colon = tested on: HT29 colon
A498 renal = tested on: A498 renal
CCRF-CEM leukemia = tested on: CCRF-CEM leukemia
IGROV1 ovarian = tested on: IGROV1 ovarian
DU-145 prostate = tested on: DU-145 prostate
ACHN renal = tested on: ACHN renal
RPMI-8226 leukemia = tested on: RPMI-8226 leukemia
HL-60(TB) leukemia = tested on: HL-60(TB) leukemia
OVCAR-3 ovarian = tested on: OVCAR-3 ovarian
SK-OV-3 ovarian = tested on: SK-OV-3 ovarian
HOP-62 NSCLC = tested on: HOP-62 NSCLC
SF-295 CNS = tested on: SF-295 CNS

Measured: TGI

O=C1CSC2(CC(/C=C/c3ccccc3O)=NN2c2cccc(S(=O)(=O)O)c2)N1c1nc2ccccc2s1 (configuration not stated)
58.5 µM: TK-10 renal
48.8 µM: SF-539 CNS
54.1 µM: OVCAR-8 ovarian
82.9 µM: MOLT-4 leukemia
55.7 µM: MDA-MB-435
30.4 µM: NCI-H522 lung
51.7 µM: CCRF-CEM leukemia
64.4 µM: OVCAR-5 ovarian
97.5 µM: DU-145 prostate
65.4 µM: T-47D breast
39.3 µM: LOX IMVI melanoma
98.7 µM: 786-0 renal
77 µM: BT-549 breast
49.5 µM: SR leukemia
98.9 µM: UO-31 renal
78.7 µM: SN12C renal
42.1 µM: RPMI-8226 leukemia
52.6 µM: HCC-2998 colon
49 µM: HL-60(TB) leukemia
88.5 µM: OVCAR-4 ovarian
not listed: OVCAR-3 ovarian | SK-OV-3 ovarian | HOP-62 NSCLC | SF-295 CNS
> 100 µM: all other assays above

NC(=O)c1cc2ccccc2oc1=Nc1ccccc1
not listed: NCI-H522 lung | TK-10 renal | UO-31 renal | SF-295 CNS
> 100 µM: all other assays above

CCOC(=O)C(c1c[nH]c2ccccc12)(c1c[nH]c2ccccc12)c1c[nH]c2ccccc12
80.1 µM: NCI-H522 lung
59.7 µM: SK-MEL-2 melanoma
98.7 µM: KM12 colon
46.8 µM: K-562 leukemia
45.3 µM: HCC-2998 colon
90.2 µM: MCF7 breast
71.2 µM: PC-3 prostate
80 µM: SR leukemia
78.1 µM: MALME-3M melanoma
45.7 µM: RPMI-8226 leukemia
76.7 µM: MDA-MB-435
58.9 µM: CCRF-CEM leukemia
39.2 µM: COLO 205 colon
54.2 µM: T-47D breast
75.9 µM: SW-620 colon
76.2 µM: HS 578T breast
87.5 µM: RXF 393 renal
88.5 µM: SNB-75 CNS
43.9 µM: HL-60(TB) leukemia
40.8 µM: MOLT-4 leukemia
not listed: NCI-H226 lung | OVCAR-4 ovarian
> 100 µM: all other assays above

O=C1CC(=O)NC(=NN2C(=O)CSC2c2ccc(Cl)c(Cl)c2)N1 (configuration not stated)
54.3 µM: MOLT-4 leukemia
49.3 µM: CCRF-CEM leukemia
not listed: SNB-19 CNS | EKVX NSCLC | LOX IMVI melanoma | HL-60(TB) leukemia
> 100 µM: all other assays above
